Measurements reported in patent publication US12036312B2, “Non-aqueous topical compositions comprising a halogenated salicylanilide” (priority 2016, dated 2024).

System: S. aureus
Test: MIC assay according to CLSI criteria, Example 2, S. aureus strains
Assay type: cell-based, Staphylococcus aureus
Conditions: Staphylococcus aureus
Source text: Chosen for its relevance regarding bacterial skin infections, the methicillin-resistant S. aureus (MRSA) 01 strain was used as the primary test microorganism. This strain is a community-acquired MRSA clinical isolate of USA 300 type, from a skin abscess.
Two-hundred-four other MRSA and methicillin-sensitive S. aureus strains, and 4 Streptococcus pyogenes strains, were also included in the study. These covered fusidic acid- and mupirocin-resistant strains, these two types of resistance being of clinical relevance.
Strains were conserved in Luria Bertani (LB) Broth (S. aureus) or Brain Heart Infusion (BHI) (S. pyogenes) supplemented with glycerol 15% (v/v) at −80° C., and reactivated by isolation on LB (S. aureus) or BHI (S. pyogenes) agar plates. Strains were cultivated in Mueller Hinton (MH) Broth-cation adjusted (S. aureus) or BHI (S. pyogenes). All strains were cultivated aerobically (microaerobically for S. pyogenes strains) at 37° C.
Bacterial cultures were stopped in their exponential growth phase and plates were inoculated with the approximate concentration of 5×10^5 cells per well. Plates were incubated at 37° C. for 18 hours (S. aureus) or 24 hours (S. pyogenes). Optical density at a wavelength of 600 nm was measured at the end of the incubation time.

Measured: MIC

CN[C@H](CC(C)C)C(=O)N[C@H]1C(=O)N[C@@H](CC(N)=O)C(=O)N[C@H]2C(=O)N[C@H]3C(=O)N[C@H](C(=O)N[C@H](C(=O)O)c4cc(O)cc(O)c4-c4cc3ccc4O)[C@H](O)c3ccc(c(Cl)c3)Oc3cc2cc(c3O[C@@H]2O[C@H](CO)[C@@H](O)[C@H](O)[C@H]2O[C@H]2C[C@](C)(N)[C@H](O)[C@H](C)O2)Oc2ccc(cc2Cl)[C@H]1O [Vancomycin, vancomycin]
1 µg/mL: ATCC29213, strain ATCC 29213 | MRSA, strain MRSA 01 | MRSA, strain MRSA 03 | MRSA, strain MRSA 05 | MRSA, strain MRSA 07 | MRSA, strain MRSA 08 | MRSA, strain MRSA 10 | MRSA, strain MRSA 11 | MRSA, strain MRSA 13 | MRSA, strain MRSA 14 | MRSA, strain MRSA 16 | MRSA, strain MRSA 18 | MRSA, strain MRSA 19 | MRSA, strain MRSA 20 | MRSA, strain MRSA 21 | MRSA, strain MRSA 23 | MRSA, strain MRSA 25 | MRSA, strain MRSA 26 | MRSA, strain MRSA 27 | MRSA, strain MRSA 27b | MRSA, strain MRSA 28 | MRSA, strain MRSA 29 | MRSA, strain MRSA 30 | MRSA, strain MRSA 31 | MRSA, strain MRSA 32 | MRSA, strain MRSA 33 | MRSA, strain MRSA 34 | MRSA, strain MRSA 35 | MRSA, strain MRSA 36 | MRSA, strain MRSA 37 | MRSA, strain MRSA 38 | MRSA, strain MRSA 39 | MRSA, strain MRSA 40 | MRSA, strain MRSA 41 | MRSA, strain MRSA 42 | MRSA, strain MRSA 43 | MRSA, strain MRSA 44 | MRSA, strain MRSA 45 | MRSA, strain MRSA 46 | MRSA, strain MRSA 50 | MRSA, strain MRSA 51 | MRSA, strain MRSA 52 | MRSA, strain MRSA 53 | MRSA, strain MRSA 56 | MRSA, strain MRSA 57 | MRSA, strain MRSA 58 | MRSA, strain MRSA 59 | MRSA, strain MRSA 63 | MRSA, strain MRSA 64 | MRSA, strain MRSA 65 | MRSA, strain MRSA 66 | MRSA, strain MRSA 67 | MRSA, strain MRSA 68 | MRSA, strain MRSA 69 | MRSA, strain MRSA 70 | MRSA, strain MRSA 71 | MRSA, strain MRSA 72 | MRSA, strain MRSA 73 | MRSA, strain MRSA 74 | MRSA, strain MRSA 75 | MRSA, strain MRSA 76 | MRSA, strain MRSA 78 | MRSA, strain MRSA 79 | MRSA, strain MRSA 80 | MRSA, strain MRSA 81 | MRSA, strain MRSA 83 | MRSA, strain MRSA 85 | MRSA, strain MRSA 87 | MRSA, strain MRSA 88 | MRSA, strain MRSA 89 | MRSA, strain MRSA 90 | MRSA, strain MRSA 91 | MRSA, strain MRSA 92 | MRSA, strain MRSA 96 | MRSA, strain MRSA 97 | MRSA, strain MRSA 98 | MRSA, strain MRSA 99 | MRSA, strain MRSA 100 | MRSA, strain MRSA 101 | MRSA, strain MRSA 103 | MRSA, strain MRSA 104 | MRSA, strain MRSA 105 | MRSA, strain MRSA 106 | MRSA, strain MRSA 108 | MRSA, strain MRSA 109 | MRSA, strain MRSA 110 | MRSA, strain MRSA 111 | MRSA, strain MRSA 112 | MRSA, strain MRSA 113 | MSSA, strain MSSA 01 | MSSA, strain MSSA 02 | strain 9-1862936 | strain 9-2625962 | strain 9-2642158 | strain 9-2955245 | strain 9-26422166 | strain 000040C | strain 000041C | strain 000274T | strain 114660U | strain 115242C | strain 115268C | strain 115273C | strain 115295C | strain 115303C | strain 115370U | strain 115427C | strain 115445C | strain 115561C | strain 115691T | strain 115740E | strain 115810E | strain 115903T | strain 116122T | strain E5-1029252 | strain E5-1029558 | strain E5-1030440 | strain E5-1030472 | strain E5-1030482 | strain E5-1033076 (first listing, r204) | strain E5-1033076 (second listing, r205) | strain E5-1033088 | strain E5-1033091 | strain E5-1035277 | strain E5-1035284 | strain E5-1035775 | strain E5-1035779 | strain E5-1037958 | strain E5-1037971 | strain E5-1038279 | strain E5-1038286 | strain E5-1038294 | strain E5-1039684 | strain E5-1039697 | strain E5-1041979 | strain E5-1041980 | strain E5-1041987 | strain E5-1043184 | strain E5-1043668 | strain E5-1045179 | strain E5-1046019 | strain E5-1046020 | strain E5-1046039 | strain E5-1046070 | strain E5-1046074 | strain E5-1046096 | strain E5-1046296 | strain E5-1046297 | strain E5-1046298 | strain E5-1047585 | strain E5-1047606 | strain E5-1047924 | strain E5-1048428 | strain E5-1048654 | strain EEFIC 01 | strain EEFIC 02 | strain K000772 | strain K000796 | strain K000863 | strain K000864 | strain K000866 | strain R000020 | strain R000024 | strain U115579
2 µg/mL: MRSA, strain MRSA 02 | MRSA, strain MRSA 04 | MRSA, strain MRSA 06 | MRSA, strain MRSA 09 | MRSA, strain MRSA 15 | MRSA, strain MRSA 17 | MRSA, strain MRSA 24 | MRSA, strain MRSA 49 | MRSA, strain MRSA 54 | MRSA, strain MRSA 61 | MRSA, strain MRSA 62 | MRSA, strain MRSA 77 | MRSA, strain MRSA 82 | MRSA, strain MRSA 84 | MRSA, strain MRSA 86 | MRSA, strain MRSA 93 | MRSA, strain MRSA 94 | MRSA, strain MRSA 95 | MRSA, strain MRSA 102 | MRSA, strain MRSA 107 | NEWMAN, strain Newman | strain 115015T | strain 115263C | strain 115584D | strain 115628T | strain 115690C | strain E5-1030469 | strain E5-1041977 | strain E5-1046085 | strain E5-1046723 | strain E5-1048204 | strain E5-1048670 | strain K115498 | strain K115688 | strain K115689 | strain R000019
0.5 µg/mL: MRSA, strain MRSA 22 | MRSA, strain MRSA 47 | MRSA, strain MRSA 48 | MRSA, strain MRSA 55 | MRSA, strain MRSA 60
